These are literature values, as cited in patent US12533310B2, “Fragrance or flavor composition” (Takasago International Corporation, priority 2019, dated 2026).

The conditions of series [1]: background art, Patent Literature 4; cited from earlier work.
The next series deals with T1, olfactory receptor OR2W1 (Homo sapiens, UniProt Q9Y3N9).
T1 sequence (Q9Y3N9 1-320): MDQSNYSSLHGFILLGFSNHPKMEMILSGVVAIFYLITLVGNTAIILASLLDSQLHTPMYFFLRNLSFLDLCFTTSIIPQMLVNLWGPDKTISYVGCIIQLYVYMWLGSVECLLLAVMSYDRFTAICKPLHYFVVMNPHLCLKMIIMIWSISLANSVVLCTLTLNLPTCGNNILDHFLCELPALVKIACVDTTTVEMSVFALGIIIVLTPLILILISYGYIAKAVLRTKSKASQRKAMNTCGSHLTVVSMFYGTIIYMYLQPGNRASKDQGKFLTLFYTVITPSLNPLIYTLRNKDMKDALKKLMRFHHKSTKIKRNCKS
As to conditions: background art, cited from earlier work.

On to `CC(C)c1cccc(C(C)CC=O)c1` (stereo not drawn) [florhydral], for which, in series [1], the “suppression of offensive odor induced by hexanoic acid in sensory testing” value is listed as “suppress an offensive odor induced by hexanoic acid”. Also, the “inhibition of the activity of OR2W1” value on olfactory receptor OR2W1 (Patent Literature 4) is listed as “inhibiting the activity of this OR2W1”.

As to `CCCCCC(=O)O` [hexanoic acid], at olfactory receptor OR2W1, the “response of olfactory receptor OR2W1” value is “responds to hexanoic acid”.
